Data taken from the CheMixHub viscosity set.
Values joined by “and” are separate entries in the source; they are usually repeats but may differ in a detail not shown here. Identical values can stand only once. ± gives the uncertainty stated by the source.

Assay: xn = mol fraction of the nth substance listed

## Nc1ccccc1 + C1CCCCC1
301.05 K, 101.32 kPa, x1 = 0.7073
  viscosity: 1.9 ± 0.047 mPa·s
301.92 K, 101 kPa, x1 = 0.238
  viscosity: 1.083 ± 0.014 mPa·s
302.2 K, 101 kPa, x1 = 0.592
  viscosity: 1.621 ± 0.02 mPa·s
302.46 K, 101 kPa, x1 = 0.745
  viscosity: 1.893 ± 0.024 mPa·s
302.5 K, 101 kPa, x1 = 0.63
  viscosity: 1.651 ± 0.021 mPa·s
302.66 K, 101 kPa, x1 = 0.71
  viscosity: 1.798 ± 0.022 mPa·s
302.76 K, 101 kPa, x1 = 0.337
  viscosity: 1.185 ± 0.015 mPa·s
303 K, 101 kPa, x1 = 0.442
  viscosity: 1.643 ± 0.076 mPa·s and 1.611 ± 0.046 mPa·s
303.02 K, 101 kPa, x1 = 0.442
  viscosity: 1.57 ± 0.028 mPa·s
303.08 K, 101 kPa, x1 = 0.39
  viscosity: 1.305 ± 0.018 mPa·s
303.09 K, 101 kPa, x1 = 0.442
  viscosity: 1.539 ± 0.022 mPa·s
303.12 K, 101 kPa, x1 = 0.592
  viscosity: 1.574 ± 0.02 mPa·s
303.15 K, 101 kPa, x1 = 0.442
  viscosity: 1.496 ± 0.023 mPa·s
303.15 K, 101.32 kPa, x1 = 0.7073
  viscosity: 1.79 ± 0.046 mPa·s
303.22 K, 101 kPa, x1 = 0.442
  viscosity: 1.458 ± 0.02 mPa·s
303.26 K, 101 kPa, x1 = 0.745
  viscosity: 1.847 ± 0.023 mPa·s
303.35 K, 101 kPa, x1 = 0.442
  viscosity: 1.419 ± 0.018 mPa·s
303.39 K, 101 kPa, x1 = 0.39
  viscosity: 1.275 ± 0.016 mPa·s
303.58 K, 101 kPa, x1 = 0.492
  viscosity: 1.434 ± 0.018 mPa·s
303.61 K, 101 kPa, x1 = 0.442
  viscosity: 1.386 ± 0.018 mPa·s
303.68 K, 101 kPa, x1 = 0.41
  viscosity: 1.31 ± 0.017 mPa·s
303.76 K, 101 kPa, x1 = 0.442
  viscosity: 1.366 ± 0.017 mPa·s
303.9 K, 101 kPa, x1 = 0.442
  viscosity: 1.353 ± 0.017 mPa·s
303.92 K, 101 kPa, x1 = 0.39
  viscosity: 1.238 ± 0.016 mPa·s
304.07 K, 101 kPa, x1 = 0.592
  viscosity: 1.531 ± 0.019 mPa·s
304.09 K, 101 kPa, x1 = 0.745
  viscosity: 1.808 ± 0.023 mPa·s
304.1 K, 101 kPa, x1 = 0.442
  viscosity: 1.335 ± 0.017 mPa·s
304.25 K, 101 kPa, x1 = 0.71
  viscosity: 1.731 ± 0.022 mPa·s
304.32 K, 101 kPa, x1 = 0.543
  viscosity: 1.452 ± 0.018 mPa·s
304.38 K, 101 kPa, x1 = 0.442
  viscosity: 1.32 ± 0.017 mPa·s
304.39 K, 101 kPa, x1 = 0.337
  viscosity: 1.109 ± 0.014 mPa·s
304.42 K, 101 kPa, x1 = 0.39
  viscosity: 1.215 ± 0.015 mPa·s
304.51 K, 101 kPa, x1 = 0.523
  viscosity: 1.41 ± 0.018 mPa·s
304.53 K, 101 kPa, x1 = 0.492
  viscosity: 1.373 ± 0.017 mPa·s
304.56 K, 101 kPa, x1 = 0.63
  viscosity: 1.546 ± 0.019 mPa·s
304.58 K, 101 kPa, x1 = 0.442
  viscosity: 1.302 ± 0.017 mPa·s
304.59 K, 101 kPa, x1 = 0.41
  viscosity: 1.244 ± 0.016 mPa·s
304.64 K, 101 kPa, x1 = 0.462
  viscosity: 1.334 ± 0.017 mPa·s
304.75 K, 101.32 kPa, x1 = 0.5628
  viscosity: 1.51 ± 0.044 mPa·s
304.99 K, 101 kPa, x1 = 0.442
  viscosity: 1.281 ± 0.016 mPa·s
305.01 K, 101 kPa, x1 = 0.745
  viscosity: 1.77 ± 0.022 mPa·s
305.05 K, 101.32 kPa, x1 = 0.5628
  viscosity: 1.48 ± 0.043 mPa·s
305.17 K, 101 kPa, x1 = 0.71
  viscosity: 1.693 ± 0.021 mPa·s
305.24 K, 101 kPa, x1 = 0.442
  viscosity: 1.268 ± 0.016 mPa·s
305.41 K, 101 kPa, x1 = 0.39
  viscosity: 1.169 ± 0.015 mPa·s
305.51 K, 101 kPa, x1 = 0.592
  viscosity: 1.466 ± 0.018 mPa·s
305.83 K, 101 kPa, x1 = 0.745
  viscosity: 1.737 ± 0.022 mPa·s
305.91 K, 101 kPa, x1 = 0.442
  viscosity: 1.236 ± 0.016 mPa·s
306.15 K, 101.32 kPa, x1 = 0.7073
  viscosity: 1.65 ± 0.045 mPa·s
306.28 K, 101 kPa, x1 = 0.337
  viscosity: 1.051 ± 0.013 mPa·s
306.33 K, 101 kPa, x1 = 0.462
  viscosity: 1.247 ± 0.016 mPa·s
306.36 K, 101 kPa, x1 = 0.442
  viscosity: 1.216 ± 0.015 mPa·s
306.36 K, 101 kPa, x1 = 0.492
  viscosity: 1.292 ± 0.016 mPa·s
306.37 K, 101 kPa, x1 = 0.543
  viscosity: 1.363 ± 0.017 mPa·s
306.39 K, 101 kPa, x1 = 0.63
  viscosity: 1.481 ± 0.019 mPa·s
306.5 K, 101 kPa, x1 = 0.523
  viscosity: 1.328 ± 0.017 mPa·s
306.54 K, 101 kPa, x1 = 0.41
  viscosity: 1.163 ± 0.015 mPa·s
306.88 K, 101 kPa, x1 = 0.71
  viscosity: 1.624 ± 0.02 mPa·s
307.09 K, 101 kPa, x1 = 0.745
  viscosity: 1.683 ± 0.021 mPa·s
307.11 K, 101 kPa, x1 = 0.442
  viscosity: 1.192 ± 0.015 mPa·s
307.79 K, 101 kPa, x1 = 0.592
  viscosity: 1.39 ± 0.018 mPa·s
307.84 K, 101 kPa, x1 = 0.442
  viscosity: 1.159 ± 0.015 mPa·s
308.04 K, 101 kPa, x1 = 0.492
  viscosity: 1.235 ± 0.016 mPa·s
308.08 K, 101 kPa, x1 = 0.745
  viscosity: 1.642 ± 0.021 mPa·s
308.26 K, 101 kPa, x1 = 0.41
  viscosity: 1.103 ± 0.014 mPa·s
308.28 K, 101 kPa, x1 = 0.39
  viscosity: 1.07 ± 0.014 mPa·s
308.35 K, 101 kPa, x1 = 0.337
  viscosity: 0.993 ± 0.013 mPa·s
308.35 K, 101 kPa, x1 = 0.462
  viscosity: 1.172 ± 0.015 mPa·s
308.36 K, 101 kPa, x1 = 0.543
  viscosity: 1.292 ± 0.016 mPa·s
308.41 K, 101 kPa, x1 = 0.63
  viscosity: 1.409 ± 0.018 mPa·s
308.43 K, 101 kPa, x1 = 0.523
  viscosity: 1.261 ± 0.016 mPa·s
309.04 K, 101 kPa, x1 = 0.745
  viscosity: 1.609 ± 0.02 mPa·s
309.11 K, 101 kPa, x1 = 0.442
  viscosity: 1.122 ± 0.014 mPa·s
309.15 K, 101.32 kPa, x1 = 0.7073
  viscosity: 1.53 ± 0.044 mPa·s
309.4 K, 101 kPa, x1 = 0.592
  viscosity: 1.324 ± 0.017 mPa·s
309.69 K, 101 kPa, x1 = 0.71
  viscosity: 1.52 ± 0.019 mPa·s
309.88 K, 101 kPa, x1 = 0.492
  viscosity: 1.169 ± 0.015 mPa·s
310.04 K, 101 kPa, x1 = 0.745
  viscosity: 1.57 ± 0.02 mPa·s
310.08 K, 101 kPa, x1 = 0.543
  viscosity: 1.234 ± 0.016 mPa·s
310.21 K, 101 kPa, x1 = 0.337
  viscosity: 0.953 ± 0.012 mPa·s
310.23 K, 101 kPa, x1 = 0.41
  viscosity: 1.047 ± 0.013 mPa·s
310.32 K, 101 kPa, x1 = 0.442
  viscosity: 1.09 ± 0.014 mPa·s
310.32 K, 101 kPa, x1 = 0.462
  viscosity: 1.117 ± 0.014 mPa·s
310.41 K, 101 kPa, x1 = 0.523
  viscosity: 1.2 ± 0.015 mPa·s
310.49 K, 101 kPa, x1 = 0.63
  viscosity: 1.345 ± 0.017 mPa·s
311.23 K, 101 kPa, x1 = 0.745
  viscosity: 1.534 ± 0.019 mPa·s
311.28 K, 101 kPa, x1 = 0.592
  viscosity: 1.258 ± 0.016 mPa·s
311.35 K, 101 kPa, x1 = 0.39
  viscosity: 0.995 ± 0.013 mPa·s
311.37 K, 101 kPa, x1 = 0.442
  viscosity: 1.063 ± 0.014 mPa·s
311.64 K, 101 kPa, x1 = 0.492
  viscosity: 1.12 ± 0.014 mPa·s
311.89 K, 101 kPa, x1 = 0.523
  viscosity: 1.16 ± 0.015 mPa·s
311.98 K, 101 kPa, x1 = 0.71
  viscosity: 1.439 ± 0.018 mPa·s
311.98 K, 101 kPa, x1 = 0.745
  viscosity: 1.501 ± 0.019 mPa·s
312.01 K, 101 kPa, x1 = 0.462
  viscosity: 1.067 ± 0.014 mPa·s
312.07 K, 101 kPa, x1 = 0.41
  viscosity: 1.004 ± 0.013 mPa·s
312.11 K, 101 kPa, x1 = 0.337
  viscosity: 0.919 ± 0.012 mPa·s
312.18 K, 101 kPa, x1 = 0.63
  viscosity: 1.289 ± 0.016 mPa·s
312.19 K, 101 kPa, x1 = 0.543
  viscosity: 1.174 ± 0.015 mPa·s
312.2 K, 101 kPa, x1 = 0.442
  viscosity: 1.042 ± 0.013 mPa·s
